Where two headings read alike, the source gives them in different places.
Columns and labels:
human CB2R = target: T1, human CB2R (Homo sapiens, UniProt P34972); assay: Competition radioligand binding assay, [3H]-CP55940, human CB2R
T1 construct: expressed in transfected cells
Method: CB2R competition binding experiments were carried out by employing cell membranes obtained from a stable HEK-hCB2 cell line. Cell membranes were prepared by washing the cells twice in PBS and scraped from the plate in PBS. Cell suspension was centrifuged at 1500× g for 3 min at 4 °C. Cell pellet was suspended in lysis buffer (15 mM Tris-HCl, 2 mM MgCl2, 0.3 mM EDTA, 1 mM EGTA, pH = 7.5), homogenized, and centrifuged at 40,000× g for 25 min at 4 °C. Pellet was suspended in lysis buffer and centrifuged at 40,000× g for 1 h at 4 °C. The membrane’s pellet was suspended in storage buffer (7.5 mM Tris-HCl, 12.5 mM MgCl2, 0.3 mM EDTA, 1 mM EGTA, 250 mM sucrose, pH = 7.5). The protein concentration of the cell membrane suspension was 4781 µg/mL.
Radioligand binding assays were performed in a polypropylene 96-well plate containing 30 μg of membranes, […] (101 Ci/mmol, 1 mCi/mL, Perkin Elmer NET1051250UC), and the compounds under study. Non-specific binding was determined in the presence of GW405833 10 μM (Sigma G1421). The reaction mixture (Vt: 250 μL/well) was incubated at 30 °C for 90 min, 200 μL was transferred to GF/C 96-well plate (Millipore, Madrid, Spain), pre-treated with 0.5% of PEI, and treated with binding buffer (50mM Tris-HCl, 5mM MgCl2, 2.5 mM EGTA, 0.1% BSA. pH: 7.4); afterward, it was filtered and washed four times with 250 μL wash buffer (50mM Tris-HCl, 5mM MgCl2, 2.5 mM EGTA, 1% BSA. pH: 7.4), before its measurement in a microplate beta scintillation counter (Microbeta Trilux, PerkinElmer, Madrid, Spain).

human CB1R = target: T2, human CB1R (Homo sapiens, UniProt P21554); assay: Competition radioligand binding assay, [3H]-CP55940, human CB1R
T2 construct: expressed in transfected cells
T2 sequence (P21554 whole entry): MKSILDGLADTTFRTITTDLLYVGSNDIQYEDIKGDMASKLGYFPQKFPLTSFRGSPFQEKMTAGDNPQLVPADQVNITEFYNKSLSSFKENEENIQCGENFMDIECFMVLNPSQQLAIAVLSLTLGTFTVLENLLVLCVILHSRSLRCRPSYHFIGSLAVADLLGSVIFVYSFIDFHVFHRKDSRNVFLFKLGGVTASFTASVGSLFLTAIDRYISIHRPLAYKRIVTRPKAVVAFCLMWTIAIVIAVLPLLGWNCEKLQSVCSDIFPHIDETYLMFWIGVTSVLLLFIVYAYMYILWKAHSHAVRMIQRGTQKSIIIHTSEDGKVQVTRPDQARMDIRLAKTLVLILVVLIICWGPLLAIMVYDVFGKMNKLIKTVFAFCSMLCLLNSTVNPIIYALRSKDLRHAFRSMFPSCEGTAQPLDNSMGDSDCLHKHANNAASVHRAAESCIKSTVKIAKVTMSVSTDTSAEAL
Method: CB1R competition binding experiments were carried out by employing cell membranes obtained from a stable CHO-hCB1 cell line. Cell membranes were prepared by washing the cells twice with phosphate buffered saline (PBS) and scraped from the plate in lysis buffer (5 mM Tris-HCl, 2 mM EDTA, pH = 7.4). Cell suspension was homogenized and centrifuged at 1000× g for 10 min at 4 °C. Supernatant was isolated and centrifuged at 48,000× g for 1 h at 4 °C. The membrane’s pellet was suspended in a storage buffer (50 mM Tris-HCl, pH = 7.4). The protein concentration of the cell membrane suspension was 4292 µg/mL.
Radioligand binding assays were performed in a polypropylene 96-well plate containing 20 μg of cell membranes, 1.25 nM [^3H]-CP55940 (101 Ci/mmol, 1 mCi/mL, Perkin Elmer NET1051250UC), and the compounds under study. Non-specific binding was determined in the presence of Surinabant 10 μM. The reaction mixture (Vt: 250 μL/well) was incubated at 30 °C for 60 min, 200 μL was transferred to a GF/B 96-well plate (Millipore, Madrid, Spain) and treated with binding buffer (50 mM Tris-HCl, 5 mM MgCl2, 1 mM EDTA, 0.5% BSA. pH: 7.4); afterward, it was filtered and washed four times with 250 μL wash buffer (50 mM Tris-HCl, 5 mM MgCl2, 1 mM EDTA, 0.5% BSA. pH: 7.4), before its measurement in a microplate beta scintillation counter (Microbeta Trilux, PerkinElmer, Madrid, Spain).

SNAP-CB2R = target: T3, SNAP-CB2R (Homo sapiens, UniProt P34972); assay: Tag-lite competition binding assay with CELT-335, living cells expressing SNAP-CB2R
T3 construct: host or cells: HEK-293 cells, transient transfection (lipofectamine 2000), living adherent cells
T3 sequence (P34972 whole entry): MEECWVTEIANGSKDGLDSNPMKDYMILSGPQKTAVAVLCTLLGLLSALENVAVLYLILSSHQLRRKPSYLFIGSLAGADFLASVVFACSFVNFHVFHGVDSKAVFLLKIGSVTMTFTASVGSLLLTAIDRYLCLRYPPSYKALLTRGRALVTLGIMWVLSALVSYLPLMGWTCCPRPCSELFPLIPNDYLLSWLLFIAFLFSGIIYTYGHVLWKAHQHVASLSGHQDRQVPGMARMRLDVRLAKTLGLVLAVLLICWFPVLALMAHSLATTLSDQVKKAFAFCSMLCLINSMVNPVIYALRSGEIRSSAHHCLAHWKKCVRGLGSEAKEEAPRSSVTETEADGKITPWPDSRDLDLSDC

SNAP-CB1R = target: T4, SNAP-CB1R (Homo sapiens, UniProt P21554); assay: cell-based; assay type: binding
T4 construct: expressed in transfected cells; host or cells: HEK-293T cells, transient transfection (PEI), living cells
T4 sequence (P21554 whole entry): as the sequence (P21554 whole entry) above

hCB2R = conditions: literature value ref 32; cited from earlier work
CB1 receptor = conditions: literature value ref 31; cited from earlier work
[1] = 100 nM CELT-335, test compound 0-10 μM, mean ± SEM, read-out: pKi CB1 Tag-Lite Binding (CELT-335) (converted)

T1 sequence (P34972 whole entry): as the sequence (P34972 whole entry) above

CC(C)C(NC(=O)c1cn(Cc2ccc(F)cc2)c2ccccc12)C(N)=O (stereo not drawn) [AB-FUBICA]
Ki (human CB2R): 28.8 nM
Ki (human CB1R): 3.6 nM
Ki (SNAP-CB2R): 36.3 nM

COC(=O)[C@@H](NC(=O)c1cn(Cc2ccc(F)cc2)c2ccccc12)C(C)C [AMB-FUBICA]
Ki (human CB2R): 20 nM
Ki (human CB1R): 47.9 nM
Ki (SNAP-CB2R): 21.9 nM
Ki (SNAP-CB1R; [1]): 117 nM

CCCCCn1cc(C(=O)NC23CC4CC(CC(C4)C2)C3)c(=O)c2ccccc21 [Adamantyl-quinolone]
Ki (human CB1R): 49 nM
pKi CB2 Tag-Lite Binding (CELT-335) (SNAP-CB2R): 8.29 ± 0.11
Ki (SNAP-CB1R): 79.4 nM
pKi CB2 Radioligand Binding (hCB2R): 7.78 [32]

COC(=O)C(NC(=O)c1cn(CC2CCCCC2)c2ccccc12)C(C)(C)C (stereo not drawn) [MDMB-CHMICA]
Ki (SNAP-CB2R): 2.34 nM
Ki (SNAP-CB1R; [1]): 8.13 nM
pKi CB1 Radioligand Binding (CB1 receptor): 9.38 [31]

Cc1c(C(=O)NCc2cccnc2)nn(-c2ccc(Cl)cc2Cl)c1-c1ccc(Cl)cc1 [MJ15]
Ki (human CB2R; displacement of specific [3H]-CP55940 binding, mean ± SEM, read-out: pKi CB2 Radioligand Binding (converted)): 692 nM
Ki (human CB1R; displacement of specific [3H]-CP55940 binding, mean ± SEM, read-out: pKi CB1 Radioligand Binding (converted)): 63.1 nM
Ki (SNAP-CB2R): 324 nM
Ki (SNAP-CB1R; [1]): 36.3 nM

From paper PMC10745346, “A Robust and Efficient FRET-Based Assay for Cannabinoid Receptor Ligands Discovery” (Molecules, 2023)
